Test results from patent US10632119B2, “Fused bicyclic 2,4-diaminopyrimidine derivative as a dual ALK and FAK inhibitor” (priority 2012, dated 2020).
Values after ≈ are worked out from the molar mass of the structure shown. Read-outs that look alike come from different tables or passages of the source.

Tests used:
Histamine H2 = Histamine H2 (Homo sapiens, UniProt P25021); experiment: Receptor selectivity (Cerep); type: binding
Muscarinic M1 = Muscarinic M1 (Homo sapiens, UniProt P11229); experiment: Receptor selectivity (Cerep); type: binding
Muscarinic M2 = Muscarinic M2 (Homo sapiens, UniProt P08172); experiment: Receptor selectivity (Cerep); type: binding
Muscarinic M3 = Muscarinic M3 (Homo sapiens, UniProt P20309); experiment: Receptor selectivity (Cerep); type: binding
Muscarinic M4 = Muscarinic M4 (Homo sapiens, UniProt P08173); experiment: Receptor selectivity (Cerep); type: binding
Neurokinin NK1 = Neurokinin NK1 (Homo sapiens, UniProt P25103); experiment: Receptor selectivity (Cerep); type: binding
DA transporter = DA transporter (Homo sapiens, UniProt Q01959); experiment: Receptor selectivity (Cerep); type: binding
hERG = hERG (Homo sapiens, UniProt Q12809); experiment: hERG patch clamp; type: cell-based
Equilibrium solubility = type: physicochemical; details: thermodynamic from solid
[1] = In vitro metabolic stability, mouse; type: in vitro ADME; details: mouse (M); read-out: In vitro metabolic stability t1/2
[2] = In vitro metabolic stability, rat; type: in vitro ADME; details: rat (R); read-out: In vitro metabolic stability t1/2
[3] = In vitro metabolic stability, monkey; type: in vitro ADME; details: monkey (Mo); read-out: In vitro metabolic stability t1/2
[4] = In vitro metabolic stability, human; type: in vitro ADME; details: human (H); read-out: In vitro metabolic stability t1/2
CYP 1A2 = CYP 1A2 (Homo sapiens, UniProt P05177); experiment: CYP inhibition; type: in vitro ADME
CYP 2C9 = CYP 2C9 (Homo sapiens, UniProt P11712); experiment: CYP inhibition; type: in vitro ADME
CYP 2C19 = CYP 2C19 (Homo sapiens, UniProt P33261); experiment: CYP inhibition; type: in vitro ADME
CYP 2D6 = CYP 2D6 (Homo sapiens, UniProt P10635); experiment: CYP inhibition; type: in vitro ADME
Caco-2 permeability = type: in vitro ADME; details: human
Protein binding, mouse = type: in vitro ADME; details: mouse (M)
Protein binding, human = type: in vitro ADME; details: human (H)
Rat bioavailability = details: in vivo, po
Mouse bioavailability = type: in vivo
Monkey bioavailability = details: in vivo, po
[5] = system: Sup-M2 ALCL tumor xenografts; experiment: Anti-tumor efficacy, NPM-ALK positive Sup-M2 ALCL xenograft; details: for anti-tumor efficacy: 12 days
Experimental: (§1) Anti-Tumor Efficacy Studies—General Protocol
(§2) The tumor volumes were then calculated with the formula of 0.5236*L*W*(L+W)/2.
(§3) Anti-Tumor Efficacy in NPM-ALK Positive Sup-M2 and Karpas-299 ALCL Tumor Xenograft Models in Mice

[6] = system: Karpas-299 tumor xenografts; details: for anti-tumor efficacy: amorphous HCl salt
Experimental: as §1, §2, §3

[7] = system: Detroit 562 HNSCC xenografts
Source text: (§4) Anti-Tumor Efficacy Studies in Human Tumor Xenografts of Hormone-Independent Prostate Carcinoma, NSCL Carcinoma and HNSC Carcinoma
(§5) The human prostate carcinoma cell lines, CWR22 and PC3, and human head and neck squamous cell carcinoma cell line Detroit 562 were obtained from American Tissue Culture Collection (ATCC, Manassas, Va.). […] Human non-small cell lung cancer cell line HCC-827 and human breast cancer cell line BT474 were also purchased from the ATCC (Manassas, Va.) and cultured in RPMI (Cat #10-040, Mediatech Inc, Manassas, Va.) with 10% FBS. The rabbit phospho-FAK (Tyr397) (Cat #3283) and FAK antibodies (Cat #3285) were purchased from Cell Signaling Technology (Beverly, Mass.).
(§6) The mice were then monitored daily.
as §2

[8] = system: PC-3 prostate tumor xenografts
Source text: as §4, §5, §6, §2

[9] = 10 days
in vivo = details: both, rat, po
Experimental: Animals were dosed via oral gavage.
Assessment of toxicity was based on mortality, clinical observations, body weights, body weight changes, food consumption, ophthalmic examinations, and clinical and anatomic pathology. Blood samples were collected for toxicokinetic evaluations.

CYP3A4 = CYP3A4 induction in vitro; details: @ 10 μM
[10] = system: NCI-H2228 NSCLC tumor xenografts; experiment: Anti-tumor activity, EML4-ALK positive NCI-H2228 NSCLC xenograft
Source text: Anti-Tumor Activity in EML4-ALK Positive (NCI-H2228 and NCI-H3122) NSCLC Tumor Xenografts in Mice with Oral Dosing
Generation of EML4-ALK-positive and EML4-ALK-negative NSCLC Subcutaneous Tumor Xenografts in Scid Mice Female Scid/Beige mice (6-8 weeks, Taconic, Hudson. N.Y.) were maintained 5/cage in microisolator units on a standard laboratory diet (Teklad Labchow, Harlan Teklad, Madison, Wis.). Animals were housed under humidity- and temperature controlled conditions and the light/dark cycle was set at 12-hour intervals. Mice were quarantined at least 1 week prior to experimental manipulation. […] The mice were monitored until the tumor xenograft volumes reached 200-500 mm3.
The length (L) and width (W) of each tumor were measured with vernier calipers and the mouse body weight was determined every two to three days. […] Percent tumor growth inhibition (% TGI) was calculated as follows: (tumor volume of the control group at end of treatment—tumor volume of the treated group at the end of treatment)/tumor volume of the control group at the end of treatment. […] Complete tumor regression (CR) was defined as the tumor volume of the treated group at the end of treatment being less than 5% of the tumor volume of the treated group as the start of treatment. Statistical analyses of tumor volumes and mouse body weights were carried out with the Mann-Whitney Rank Sum Test. Plasma and tumor samples were obtained at 2 hours post final dose at each dose level, and the compound levels in plasma and tumor lysates were measured by LC-MS/MS

[11] = bid or qd oral dosing at 10 and 30 mg/kg
[12] = four weeks of additional treatment at 55 mg/kg qd po

Sequence of Muscarinic M1 (P11229 whole entry): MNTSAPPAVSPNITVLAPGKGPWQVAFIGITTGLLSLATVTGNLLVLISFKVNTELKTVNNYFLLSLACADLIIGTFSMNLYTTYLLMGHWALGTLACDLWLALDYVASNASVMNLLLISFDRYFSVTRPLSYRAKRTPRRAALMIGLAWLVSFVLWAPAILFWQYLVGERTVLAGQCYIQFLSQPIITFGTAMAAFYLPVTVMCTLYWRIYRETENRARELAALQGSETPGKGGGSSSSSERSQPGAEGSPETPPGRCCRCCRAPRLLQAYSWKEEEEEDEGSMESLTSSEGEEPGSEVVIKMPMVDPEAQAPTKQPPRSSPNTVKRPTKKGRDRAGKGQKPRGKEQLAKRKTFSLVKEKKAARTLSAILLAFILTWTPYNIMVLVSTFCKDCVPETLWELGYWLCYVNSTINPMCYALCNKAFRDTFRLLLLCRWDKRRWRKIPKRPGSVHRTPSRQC
Sequence of hERG (Q12809 whole entry): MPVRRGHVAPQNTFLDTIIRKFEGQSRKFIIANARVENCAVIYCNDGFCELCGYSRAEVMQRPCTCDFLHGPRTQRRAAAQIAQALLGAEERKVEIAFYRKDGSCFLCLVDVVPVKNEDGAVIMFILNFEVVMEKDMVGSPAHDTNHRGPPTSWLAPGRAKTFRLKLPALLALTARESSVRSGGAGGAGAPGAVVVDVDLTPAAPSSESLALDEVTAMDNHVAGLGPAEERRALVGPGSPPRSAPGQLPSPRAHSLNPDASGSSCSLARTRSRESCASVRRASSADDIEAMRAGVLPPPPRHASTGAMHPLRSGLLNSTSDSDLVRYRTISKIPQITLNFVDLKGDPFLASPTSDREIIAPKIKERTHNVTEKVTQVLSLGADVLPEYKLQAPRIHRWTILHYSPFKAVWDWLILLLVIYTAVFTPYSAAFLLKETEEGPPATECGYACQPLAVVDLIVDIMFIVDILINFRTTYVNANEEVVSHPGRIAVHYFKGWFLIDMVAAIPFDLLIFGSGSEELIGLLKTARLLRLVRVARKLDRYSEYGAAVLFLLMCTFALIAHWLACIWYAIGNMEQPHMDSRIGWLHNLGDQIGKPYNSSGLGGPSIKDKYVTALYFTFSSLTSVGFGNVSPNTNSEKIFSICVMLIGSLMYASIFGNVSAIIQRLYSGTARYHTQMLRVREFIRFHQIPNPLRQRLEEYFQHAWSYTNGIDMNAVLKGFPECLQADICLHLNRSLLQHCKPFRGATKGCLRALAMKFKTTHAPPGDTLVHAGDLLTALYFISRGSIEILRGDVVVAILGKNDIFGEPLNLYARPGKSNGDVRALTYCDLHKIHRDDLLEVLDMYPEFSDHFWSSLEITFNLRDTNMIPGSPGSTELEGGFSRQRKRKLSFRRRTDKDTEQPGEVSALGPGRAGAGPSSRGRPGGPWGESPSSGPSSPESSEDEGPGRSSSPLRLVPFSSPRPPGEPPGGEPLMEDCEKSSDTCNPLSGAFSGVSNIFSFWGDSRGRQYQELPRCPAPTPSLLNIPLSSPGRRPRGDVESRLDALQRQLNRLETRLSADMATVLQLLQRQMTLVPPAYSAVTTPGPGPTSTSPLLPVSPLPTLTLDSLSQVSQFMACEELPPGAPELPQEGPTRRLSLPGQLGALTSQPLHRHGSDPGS
Sequence of CYP 2D6 (P10635 whole entry): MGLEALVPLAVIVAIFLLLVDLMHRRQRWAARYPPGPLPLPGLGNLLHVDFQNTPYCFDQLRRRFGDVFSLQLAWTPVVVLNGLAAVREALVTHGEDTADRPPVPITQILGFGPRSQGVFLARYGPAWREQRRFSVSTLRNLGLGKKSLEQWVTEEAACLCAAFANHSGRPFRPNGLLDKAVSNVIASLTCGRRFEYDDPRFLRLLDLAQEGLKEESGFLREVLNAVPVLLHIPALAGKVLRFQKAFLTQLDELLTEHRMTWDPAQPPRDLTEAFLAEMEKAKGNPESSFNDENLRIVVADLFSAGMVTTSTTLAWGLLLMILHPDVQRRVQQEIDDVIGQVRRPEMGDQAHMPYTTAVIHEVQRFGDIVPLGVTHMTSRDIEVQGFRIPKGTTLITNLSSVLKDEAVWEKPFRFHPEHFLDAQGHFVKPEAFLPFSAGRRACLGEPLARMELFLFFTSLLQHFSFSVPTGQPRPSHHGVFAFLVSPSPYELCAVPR
Sequence of CYP 1A2 (P05177 whole entry): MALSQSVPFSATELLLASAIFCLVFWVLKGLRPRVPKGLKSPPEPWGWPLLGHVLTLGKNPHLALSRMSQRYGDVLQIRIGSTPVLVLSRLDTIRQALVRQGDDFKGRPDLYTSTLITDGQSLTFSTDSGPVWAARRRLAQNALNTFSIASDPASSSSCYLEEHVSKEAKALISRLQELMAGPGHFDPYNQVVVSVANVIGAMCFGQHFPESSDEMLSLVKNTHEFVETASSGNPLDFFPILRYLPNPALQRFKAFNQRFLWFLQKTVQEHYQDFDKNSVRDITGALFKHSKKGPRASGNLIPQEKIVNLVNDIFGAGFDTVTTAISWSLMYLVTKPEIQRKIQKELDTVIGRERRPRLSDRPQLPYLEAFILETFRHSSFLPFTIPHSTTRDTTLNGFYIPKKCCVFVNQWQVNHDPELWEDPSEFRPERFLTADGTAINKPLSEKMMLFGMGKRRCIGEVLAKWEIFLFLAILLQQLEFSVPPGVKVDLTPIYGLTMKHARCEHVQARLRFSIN
Sequence of CYP 2C9 (P11712 whole entry): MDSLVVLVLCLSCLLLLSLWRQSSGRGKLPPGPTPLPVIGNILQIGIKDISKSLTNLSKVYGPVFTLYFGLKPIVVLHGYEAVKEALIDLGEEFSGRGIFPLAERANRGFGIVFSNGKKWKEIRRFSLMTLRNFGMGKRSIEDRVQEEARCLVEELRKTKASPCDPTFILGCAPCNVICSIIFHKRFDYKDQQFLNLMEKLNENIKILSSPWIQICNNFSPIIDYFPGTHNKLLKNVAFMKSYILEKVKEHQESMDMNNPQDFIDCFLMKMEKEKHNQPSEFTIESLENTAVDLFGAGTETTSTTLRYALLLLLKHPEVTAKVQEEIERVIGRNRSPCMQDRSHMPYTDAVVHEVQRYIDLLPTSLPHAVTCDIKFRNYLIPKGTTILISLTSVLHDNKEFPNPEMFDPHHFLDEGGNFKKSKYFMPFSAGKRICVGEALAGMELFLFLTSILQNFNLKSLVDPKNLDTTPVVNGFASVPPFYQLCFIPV
Sequence of DA transporter (Q01959 whole entry, species assumed): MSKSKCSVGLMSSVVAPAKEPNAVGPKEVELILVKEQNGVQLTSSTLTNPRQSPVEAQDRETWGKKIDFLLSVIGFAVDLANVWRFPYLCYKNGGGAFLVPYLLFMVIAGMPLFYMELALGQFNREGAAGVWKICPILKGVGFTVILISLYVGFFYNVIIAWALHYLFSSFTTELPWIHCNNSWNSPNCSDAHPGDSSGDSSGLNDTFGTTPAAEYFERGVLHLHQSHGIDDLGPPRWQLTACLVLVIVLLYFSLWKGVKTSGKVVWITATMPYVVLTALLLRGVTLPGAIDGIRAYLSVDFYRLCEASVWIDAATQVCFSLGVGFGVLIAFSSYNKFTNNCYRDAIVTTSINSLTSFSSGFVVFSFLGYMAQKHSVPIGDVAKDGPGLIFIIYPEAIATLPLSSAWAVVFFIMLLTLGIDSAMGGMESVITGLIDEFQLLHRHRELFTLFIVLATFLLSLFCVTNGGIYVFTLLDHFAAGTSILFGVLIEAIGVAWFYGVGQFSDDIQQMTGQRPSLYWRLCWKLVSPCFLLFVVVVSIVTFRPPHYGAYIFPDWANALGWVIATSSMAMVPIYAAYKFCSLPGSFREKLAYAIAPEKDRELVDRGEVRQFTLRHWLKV
Sequence of CYP 2C19 (P33261 whole entry): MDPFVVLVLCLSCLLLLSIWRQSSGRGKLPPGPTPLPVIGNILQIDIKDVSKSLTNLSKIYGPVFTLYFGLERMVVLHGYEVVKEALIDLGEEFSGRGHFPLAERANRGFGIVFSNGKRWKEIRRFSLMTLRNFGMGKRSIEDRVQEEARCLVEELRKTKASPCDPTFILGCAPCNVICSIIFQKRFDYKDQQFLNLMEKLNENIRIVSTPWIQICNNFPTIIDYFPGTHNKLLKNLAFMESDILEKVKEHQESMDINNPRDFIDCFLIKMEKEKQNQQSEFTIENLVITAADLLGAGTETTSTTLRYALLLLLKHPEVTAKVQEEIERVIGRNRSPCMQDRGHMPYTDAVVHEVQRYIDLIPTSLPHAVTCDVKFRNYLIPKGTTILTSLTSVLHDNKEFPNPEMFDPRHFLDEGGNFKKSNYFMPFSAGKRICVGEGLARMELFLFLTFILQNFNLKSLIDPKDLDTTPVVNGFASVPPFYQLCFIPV
Sequence of Neurokinin NK1 (P25103 whole entry): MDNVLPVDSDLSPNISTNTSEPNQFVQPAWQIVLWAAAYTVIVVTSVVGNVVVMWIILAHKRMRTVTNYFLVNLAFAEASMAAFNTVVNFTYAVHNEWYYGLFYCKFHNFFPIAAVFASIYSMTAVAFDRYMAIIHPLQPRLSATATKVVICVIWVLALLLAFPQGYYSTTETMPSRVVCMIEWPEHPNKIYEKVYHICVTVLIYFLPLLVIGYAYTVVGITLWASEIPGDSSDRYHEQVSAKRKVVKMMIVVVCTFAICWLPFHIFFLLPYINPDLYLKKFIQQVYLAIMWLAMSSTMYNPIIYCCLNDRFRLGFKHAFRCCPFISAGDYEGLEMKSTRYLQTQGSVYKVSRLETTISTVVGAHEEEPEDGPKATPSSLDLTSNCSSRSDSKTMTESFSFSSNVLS
Sequence of Histamine H2 (P25021 whole entry): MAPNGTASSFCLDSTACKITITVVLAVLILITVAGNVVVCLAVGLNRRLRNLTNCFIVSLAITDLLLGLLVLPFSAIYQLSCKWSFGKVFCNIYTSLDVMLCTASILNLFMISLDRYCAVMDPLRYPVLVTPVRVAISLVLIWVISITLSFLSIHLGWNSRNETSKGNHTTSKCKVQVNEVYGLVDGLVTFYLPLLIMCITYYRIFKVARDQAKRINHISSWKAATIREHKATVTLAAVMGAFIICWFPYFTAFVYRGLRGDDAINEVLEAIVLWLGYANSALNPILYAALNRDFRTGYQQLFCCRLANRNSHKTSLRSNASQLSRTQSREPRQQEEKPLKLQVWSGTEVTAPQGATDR

CNC(=O)c1ccccc1Nc1nc(Nc2ccc3c(c2OC)CCC[C@H](N2CCN(CCO)CC2)C3)ncc1Cl [CEP-37440, 2-[[5-chloro-2-[[(6S)-6-[4-(2-hydroxyethyl)piperazin-1-yl]-1-methoxy-6,7,8,9-tetrahydro-5H-benzo[7]annulen-2-yl]amino]pyrimidin-4-yl]amino]-N-methyl-benzamide]
Ki (Histamine H2): 5200 nM | Ki (Muscarinic M1): 2460 nM | Ki (Muscarinic M2): 2000 nM | Ki (Muscarinic M3): 3500 nM | Ki (Muscarinic M4): 460 nM | Ki (Neurokinin NK1): 1200 nM | Ki (DA transporter): 2100 nM | IC50 (hERG): > 10000 nM | solubility thermodynamic (Equilibrium solubility; pH 2, simulated gastric fluid, read-out: Equilibrium solubility at pH 2): > 1000 µg/mL | solubility thermodynamic (Equilibrium solubility; pH 7.4, aqueous buffer, read-out: Equilibrium solubility at pH 7.4): 280 µg/mL (≈ 483 µM) | half-life [1]: > 40 min | half-life [2]: > 40 min | half-life [3]: 21 min | half-life [4]: > 40 min | IC50 (CYP 1A2): > 30000 nM | IC50 (CYP 2C9): > 30000 nM | IC50 (CYP 2C19): > 20000 nM | IC50 (CYP 2D6): > 30000 nM | Papp (Caco-2 permeability): 1.26 ×10⁻⁶ cm/s | Protein binding (Protein binding, mouse): 85 % bound | Protein binding (Protein binding, human): 95 % bound | bioavailability (Rat bioavailability): > 42% | Mouse bioavailability (Mouse bioavailability; CD-1 mouse, CEP-37440 as amorphous HCl salt): 102% | bioavailability (Mouse bioavailability; Scid, mouse, in vivo, po): 99% | bioavailability (Monkey bioavailability; 10 mg/kg): 50% | bioavailability (Monkey bioavailability; 30 mg/kg): 74% | anti-tumor efficacy ([5]; 10 mg/kg or lower, bid, po): No significant anti-tumor activity | anti-tumor efficacy ([5]; 30 mg/kg bid po): complete or near complete tumor regression | anti-tumor efficacy ([5]; 30 mg/kg, qd, po): partial tumor regression | anti-tumor efficacy ([5]; 55 mg/kg qd po): complete or near complete tumor regression | tolerability, body weight ([5]; all dosing regimens): well tolerated with no overt toxicity and no significant compound-related body weight loss | plasma level at 2 h post final dosing versus 2 h post single oral dose [5, 11]: 2-3 fold | tumor level at 2 h post final dosing versus 2 h post single oral dose [5, 11]: more than 10 fold | anti-tumor efficacy ([6]; 30 mg/kg bid, 12 days): complete or near complete tumor regression | anti-tumor efficacy ([6]; 30 mg/kg qd): significant anti-tumor activity | anti-tumor efficacy ([6]; 55 mg/kg, qd, 12 days): complete or near complete tumor regression | tolerability, body weight ([6]; all dosing regimens): well tolerated with no overt toxicity and no significant body weight loss | incidence of partial tumor regressions ([7]; 30 mg/kg bid, 28-day period): 20% | incidence of partial tumor regressions ([7]; 55 mg/kg bid, 28-day period): 30% | anti-tumor efficacy ([7]; 28-day period): tumor stasis | tolerability ([7]; all dosing regimens): well-tolerated with no morbidity or mortality observed | tumor pharmacodynamic inhibition of FAK activation ([7]; no effect on total FAK expression levels): clear tumor pharmacodynamic effect for inhibition of FAK activation | incidence of complete tumor regressions ([8]; 36 day period, oral): 10% | tumor growth inhibition (TGI) ([8]; 36 day period, oral, equivalent doses of both compounds): 55% | tolerability, body weight ([8]; all dosing regimens): well tolerated with no overt toxicity or significant body weight loss observed | doses with drug-related adverse findings (body weight, bone marrow, spleen, thymus, lymph node, lung) ([9]; daily gavage): ≥ 30 mg/kg/day | dose well tolerated ([9]; rat, in vivo): 10 mg/kg/day | NOAEL at 4 weeks (in vivo): 10 mg/kg/day | CYP3A4 induction in vitro (CYP3A4): 1.5 @ 10 μM fold | mice with sustained tumor regressions, no tumor re-emergence ([10]; 40 days following cessation of treatment): 100% | animals with sustained complete tumor regression [10, 12]: 100% | tolerability, body weight [10, 12]: well tolerated with no overt toxicity and no significant body weight loss
